# In BindingDB's records for doi:10.1021/jm00008a012 (University of Minnesota, 1995):
# Experiments:
# [1] = Tested for binding affinity against delta2 opioid receptor using [3H]DSLET as a radioligand in the guinea pig brain membranes.
# [2] = Tested for binding affinity against delta1 opioid receptor using [3H]-DPDPE as a radioligand in the guinea pig brain membranes.
Structure (SMILES),Ki [1] [nM],Ki [2] [nM]
"O=C(CBr)Nc1cccc(Cn2c3c(c4ccccc42)C[C@@]2(O)C4Cc5ccc(O)c6c5C2(CCN4CC2CC2)[C@H]3O6)c1 (stereo partly drawn) [1N-{3-[22-cyclopropylmethyl-2,16-dihydroxy-14-oxa-11,22-diazaheptacyclo[13.9.1.01,13.02,21.04,12.05,10.019,25]pentacosa-4(12),5(10),6,8,15,17,19(25)-heptaen-11-ylmethyl]phenyl}-2-bromoacetamide]",0.038,0.019
"Oc1ccc2c3c1O[C@H]1c4c(c5ccccc5n4Cc4ccccc4N=C=S)C[C@@]4(O)C(C2)N(CC2CC2)CCC314 (stereo partly drawn) [22-cyclopropylmethyl-11-(2-isothiocyanatobenzyl)-14-oxa-11,22-diazaheptacyclo[13.9.1.01,13.02,21.04,12.05,10.019,25]pentacosa-4(12),5(10),6,8,15,17,19(25)-heptaene-2,16-diol]",3.6,2
"Oc1ccc2c3c1O[C@H]1c4c(c5ccccc5n4Cc4cccc(N=C=S)c4)C[C@@]4(O)C(C2)N(CC2CC2)CCC314 (stereo partly drawn) [22-cyclopropylmethyl-11-(3-isothiocyanatobenzyl)-14-oxa-11,22-diazaheptacyclo[13.9.1.01,13.02,21.04,12.05,10.019,25]pentacosa-4(12),5(10),6,8,15,17,19(25)-heptaene-2,16-diol]",7,4.2
"Oc1ccc2c3c1O[C@H]1c4c(c5ccccc5n4Cc4ccc(N=C=S)cc4)C[C@@]4(O)C(C2)N(CC2CC2)CCC314 (stereo partly drawn) [22-cyclopropylmethyl-11-(4-isothiocyanatobenzyl)-14-oxa-11,22-diazaheptacyclo[13.9.1.01,13.02,21.04,12.05,10.019,25]pentacosa-4(12),5(10),6,8,15,17,19(25)-heptaene-2,16-diol]",5,5.3
